Read-outs that look alike come from different tables or passages of the source.
Tests used:
hELOVL6 = molecular target: T1, hELOVL6 (Homo sapiens, UniProt Q9H5J4); conditions: read-out: hELOVL6 IC50; cited from earlier work
T1 sequence (Q9H5J4 1-265): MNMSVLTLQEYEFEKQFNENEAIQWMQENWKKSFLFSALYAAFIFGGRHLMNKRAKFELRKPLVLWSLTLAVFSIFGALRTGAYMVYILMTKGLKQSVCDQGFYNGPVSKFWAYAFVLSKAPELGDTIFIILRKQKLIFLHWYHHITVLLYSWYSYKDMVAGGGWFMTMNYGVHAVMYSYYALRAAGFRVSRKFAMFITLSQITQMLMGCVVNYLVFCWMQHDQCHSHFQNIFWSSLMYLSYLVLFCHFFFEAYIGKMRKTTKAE

hELOVL3 = molecular target: T2, hELOVL3 (Homo sapiens, UniProt Q9HB03); conditions: cited from earlier work
T2 sequence (Q9HB03 1-270): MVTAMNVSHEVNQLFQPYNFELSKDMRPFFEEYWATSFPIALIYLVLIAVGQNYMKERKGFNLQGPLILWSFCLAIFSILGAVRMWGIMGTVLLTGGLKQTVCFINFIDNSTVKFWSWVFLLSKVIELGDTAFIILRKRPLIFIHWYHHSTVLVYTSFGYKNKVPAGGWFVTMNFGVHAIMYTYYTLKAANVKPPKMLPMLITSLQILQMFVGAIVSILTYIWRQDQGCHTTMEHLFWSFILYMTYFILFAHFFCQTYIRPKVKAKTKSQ

adenovirus = adenovirus replication / titer; type: cell-based; conditions: for decrease of adenovirus titer: MRC2 cells
HCMV = HCMV replication / titer in infected fibroblasts; type: cell-based
MDCK cells = assay: host cell toxicity in influenza A experiment; type: cell-based; conditions: 0.5 mM and 1 mM, 24 hours
influenza A = influenza A replication; type: cell-based
[1] = system: cholesterol ester (CE) synthesis; conditions: cited from earlier work
[2] = system: triacylglycerol (TG) synthesis; conditions: cited from earlier work
HCV [3] = assay: HCV replication; type: cell-based, hepatitis C virus
HCV [4] = assay: HCV replication in cell cultures, ACC inhibitor combined with HCV protease inhibitor (Example 1); type: cell-based
Description: HCV encoded proteolytic activity is required for infection and replication. The present example concerns the combined use of an ACC inhibitors (e.g., TOFA) and an HCV protease inihibitor (e.g., boceprevir) to antagonize viral replication. In each assay, various concentrations of TOFA are combined with various concentrations of boceprevir and cell cultures exposed to HCV are assayed for virus replication. In one series of tested combinations, a physiological concentration of boceprivir is held constant as the dose of TOFA is increased. Control cultures are treated with no drug, boceprivir alone or the various concentrations of TOFA alone. Samples are taken at 24, 48, 72 and 96 hours after initiation of drug treatment. The antiviral effect of boceprivir plus each concentration of TOFA is then compared to the activity of boceprivir alone or the various concentrations of TOFA alone. The relative toxicity of the different combinations is also assayed.

[5] = cited from earlier work
[6] = system: herpes simplex virus-1 (HSV-1); assay: HSV-1 replication; type: cell-based; conditions: nanomolar concentrations

## CCCCS(=O)(=O)N1C[C@H]2CC[C@@H]1[C@H](C(=O)Nc1ccc(OC)cc1)C2
hELOVL6
  IC50: 1710 nM

## CC(C)Oc1ccc(NC(=O)[C@@H]2C[C@@H]3CC[C@H]2N(S(=O)(=O)c2cn(C)cn2)C3)cc1
hELOVL3
  IC50: 1510 nM
hELOVL6
  IC50: 220 nM

## CCCCS(=O)(=O)N1CCC[C@@H](C(=O)Nc2ccc(OC(C)C)cc2)C1
hELOVL6
  IC50: 930 nM

## NOCC(=O)O [AOAA, aminooxyacetic acid]
adenovirus
  inhibition of adenovirus replication: inhibited the replication
adenovirus; 0.5 mM
  decrease of adenovirus titer: 20 fold
adenovirus; 1 mM
  decrease of adenovirus titer: 500 fold
HCMV
  inhibition of HCMV replication: inhibited the replication
HCMV; 0.5 mM
  decrease of HCMV replication: 100 fold
MDCK cells
  host cell toxicity: no evidence of host cell toxicity
Influenza A
  decrease of influenza A replication: at least 1000 fold
  inhibition of influenza A replication: inhibited the replication

## N=C(N)NCc1cccc([131I])c1 [MIBG, meta-iodobenzylguanidine]
HCMV; 50 μM, infected MRCS fibroblasts
  reduction of HCMV titer: about 70%

## CCC(C)[C@@H]1C(=O)/C(=C(/O)[C@@H]2[C@@H]3[C@H](C)C[C@H](C)C[C@@H]3C=C[C@@H]2[C@]2(C)O[C@H]2C)C(=O)N1C (stereo partly drawn) [PF-1052]
[1]
  inhibition of CE synthesis: inhibits both CE and TG synthesis in a dose dependent manner
[2]
  inhibition of TG synthesis: inhibits both CE and TG synthesis in a dose dependent manner
HCMV; 10 μM
  inhibition of HCMV replication: profoundly inhibits

## CCCCCCCCCCCCCCOc1ccc(C(=O)O)o1 [TOFA, 5-(tetradecyloxy)-2-furoic acid]
HCV [3]
  inhibition of HCV replication: inhibited the replication
HCMV
  inhibition of HCMV replication: inhibited the replication
HCV [4]; given TOFA concentration, boceprivir also present
  magnitude of the therapeutic effect: increased
HCV [4]; in the presence of a pharmacologically acceptable concentration of boceprivir
  concentration of TOFA required to produce a 10-fold reduction in HCV replication: markedly reduced
[5]; rat, in vivo, 100 mg/kg/day
  adverse effects: no adverse effects are observed
[5]; rat, in vivo, 150 mg/kg/day
  teratogenicity: not teratogenic
[5]; rats, oral
  oral LD50: greater than 5,000 mg/kg

## O=C(Nc1ccc(C(F)(F)F)cc1)N1C2CCC1CC(S(=O)(=O)c1ccccn1)C2 (stereo not drawn) [endo-1w]
hELOVL3
  IC50: 6940 nM
hELOVL6
  IC50: 79 nM

## COC(=O)c1c2c(c3ccccc3c1O)OC(C)(C)C=C2 [rubimaillin]
[1]
  inhibition of CE synthesis: selectively inhibits CE synthesis

## CCC/C=C/C/C=C/C=C/C=N/NN=O [triacsin C]
[6]
  inhibition of HSV-1 replication: inhibit the replication
HCV [3]; nanomolar concentrations
  inhibition of HCV replication: inhibit the replication
HCMV; nanomolar concentrations
  inhibition of HCMV replication: inhibit the replication
Influenza A; nanomolar concentrations
  inhibition of influenza A replication: inhibit the replication

— patent US20150139949A1, “ANTI-VIRAL COMBINATION THERAPY” (priority 2011, published 2015)
